Data published in publication PMC12027839, “Aging-Associated Amyloid-β Plaques and Neuroinflammation in Bottlenose Dolphins (Tursiops truncatus) and Novel Cognitive Health-Supporting Roles of Pentadecanoic Acid (C15:0)” (International Journal of Molecular Sciences, 2025).

Legend:
[1] = target: T1, Fatty Acid Amide Hydrolase (FAAH) (Homo sapiens, UniProt O00519); experiment: Enzyme assay with human recombinant FAAH (Sf21 cells), AMC arachidonoyl amide substrate, spectrofluorimetric, […] concentrations; format: biochemical
[2] = target: T2, Monoamine oxidase B (MAO-B) (Homo sapiens, UniProt P27338); experiment: Enzyme assay with human recombinant MAO-B (insect cells), kynuramine substrate, spectrofluorimetric, […] concentrations; format: biochemical
T2 construct: gene MAOB

[3] = target: Catechol-O-Methyl Transferase (COMT) (Sus scrofa, UniProt Q99028); experiment: biochemical; set-up: Eurofins Alzheimer's MoA LeadHunter enzyme assays; percent inhibition of enzyme activity, mean of duplicates; details: Ligand or Substrate=Esculetin
Description: (§1) Standardized enzyme and radioligand binding assays were used by an independent third party (Eurofins Discovery, Taiwan) to evaluate C15:0 across ten concentrations and up to 50 µM for activities as part of the Eurofins Discovery Alzheimer’s MoA LeadHunter Panel. Methods employed in this study were adapted from the scientific literature to maximize reliability and reproducibility. Reference standards were run as an integral part of each assay to ensure the validity of the results obtained. IC50 values were determined by a non-linear, least squares regression analysis using MathIQTM (ID Business Solutions Ltd., Woking, UK). This study included evaluated inhibition of the following targets by C15:0 using enzyme assays (Cholinesterase, Acetyl, ACES; Cholinesterase, Butyryl, CHLE; Peptidase, CTSB (Cathepsin B); Cyclooxygenase COX-1; Cyclooxygenase COX-2; Myeloperoxidase; IDO1; Monoamine Oxidase MAO-A; Monoamine Oxidase MAO-B; Peptidase, Endothelin Converting Enzyme-1 (ECE-1); Peptidase, Metalloproteinase, Neutral Endopeptidase; Peptidase, BACE1 (beta-Secretase); Protein Tyrosine Kinase, Fyn; Protein Serine/Threonine Kinase, GSK3B; Protein Serine/Threonine Kinase, MAPK14 (p38alpha); Protein Tyrosine Phosphatase, DUSP22; Fatty Acid Amide Hydrolase (FAAH); Nitric Oxide Synthetase, Inducible (iNOS); Catechol-O-Methyl Transferase (COMT); and Lipoxygenase 15-LOX-2) and radioligand binding assays (Adenosine A2A; Transporter, GABA; GABAA, Ro-15-1788, Hippocampus; Glutamate, AMPA; Glutamate, NMDA, MK-801; Glutamate, NMDA, Polyamine; Glutamate, Metabotropic, mGlu5; Histamine H3; Chemokine CX3CR1; Muscarinic M1; Nicotinic Acetylcholine alpha7, Methyllycaconitine; Serotonin (5-Hydroxytryptamine) 5-HT1A, WAY-100635; Serotonin (5-Hydroxytryptamine) 5-HT4B; Serotonin (5-Hydroxytryptamine) 5-HT6; Sodium Channel, Site 1; Somatostatin sst4; Sigma 2; Sigma1; Platelet Activating Factor (PAF)). Biochemical assay results were presented as the percent inhibition of specific binding or activity. […] Primary screening was conducted in duplicate with semi-quantitative data (e.g., estimated IC50). Significant responses (≥50% inhibition) were noted.

[4] = target: T3, Cholinesterase, Acetyl, ACES (Homo sapiens, UniProt P22303); experiment: biochemical; set-up: Eurofins Alzheimer's MoA LeadHunter enzyme assays; percent inhibition of enzyme activity, mean of duplicates; details: Ligand or Substrate=Acetylthiocholine
T3 construct: gene ACHE
Description: as §1

[5] = target: T4, Cholinesterase, Butyryl, CHLE (Homo sapiens, UniProt P06276); experiment: biochemical; set-up: Eurofins Alzheimer's MoA LeadHunter enzyme assays; percent inhibition of enzyme activity, mean of duplicates; details: Ligand or Substrate=S-Butyrylthiocholine
T4 construct: gene BCHE
Description: as §1

Cyclooxygenase COX-1 = target: T5, Cyclooxygenase COX-1 (Homo sapiens, UniProt P23219); experiment: biochemical; set-up: Eurofins Alzheimer's MoA LeadHunter enzyme assays; percent inhibition of enzyme activity, mean of duplicates; details: Ligand or Substrate=Arachidonic acid
T5 construct: gene PTGS1
Description: as §1

Cyclooxygenase COX-2 = target: T6, Cyclooxygenase COX-2 (Homo sapiens, UniProt P35354); experiment: biochemical; set-up: Eurofins Alzheimer's MoA LeadHunter enzyme assays; percent inhibition of enzyme activity, mean of duplicates; details: Ligand or Substrate=Arachidonic acid
T6 construct: gene PTGS2
Description: as §1

[6] = target: T1, Fatty Acid Amide Hydrolase (FAAH); experiment: biochemical; set-up: Eurofins Alzheimer's MoA LeadHunter enzyme assays; percent inhibition of enzyme activity, mean of duplicates; details: Ligand or Substrate=AMC arachidonoyl amide
Description: as §1

IDO1 = IDO1 (Homo sapiens, UniProt P14902); experiment: biochemical; set-up: Eurofins Alzheimer's MoA LeadHunter enzyme assays; percent inhibition of enzyme activity, mean of duplicates; details: Ligand or Substrate=L-tryptophan (L-Trp)
Description: as §1

Lipoxygenase 15-LOX-2 = target: T7, Lipoxygenase 15-LOX-2 (Homo sapiens, UniProt O15296); experiment: biochemical; set-up: Eurofins Alzheimer's MoA LeadHunter enzyme assays; percent inhibition of enzyme activity, mean of duplicates; details: Ligand or Substrate=AMC arachidonoyl amide
T7 construct: gene ALOX15B
Description: as §1

Monoamine Oxidase MAO-A = target: T8, Monoamine Oxidase MAO-A (Homo sapiens, UniProt P21397); experiment: biochemical; set-up: Eurofins Alzheimer's MoA LeadHunter enzyme assays; percent inhibition of enzyme activity, mean of duplicates; details: Ligand or Substrate=Kynuramine
T8 construct: gene MAOA
Description: as §1

Monoamine Oxidase MAO-B = target: T9, Monoamine Oxidase MAO-B (Homo sapiens, UniProt P27338); experiment: biochemical; set-up: Eurofins Alzheimer's MoA LeadHunter enzyme assays; percent inhibition of enzyme activity, mean of duplicates; details: Ligand or Substrate=Kynuramine
T9 construct: gene MAOB
Description: as §1

Myeloperoxidase = target: T10, Myeloperoxidase (Homo sapiens, UniProt P05164); experiment: biochemical; set-up: Eurofins Alzheimer's MoA LeadHunter enzyme assays; percent inhibition of enzyme activity, mean of duplicates; details: Ligand or Substrate=Guaiacol
T10 construct: gene MPO
Description: as §1

[7] = target: Peptidase, BACE1 (beta-Secretase) (Homo sapiens, UniProt P56817); experiment: biochemical; set-up: Eurofins Alzheimer's MoA LeadHunter enzyme assays; percent inhibition of enzyme activity, mean of duplicates; details: Ligand or Substrate=MOCAc-S-E-V-N-L-D-A-E-F-R-K(Dnp)-R-R-NH2
Description: as §1

[8] = target: Peptidase, CTSB (Cathepsin B) (Homo sapiens, UniProt P07858); experiment: biochemical; set-up: Eurofins Alzheimer's MoA LeadHunter enzyme assays; percent inhibition of enzyme activity, mean of duplicates; details: Ligand or Substrate=Boc-Leu-Arg-Arg-AMC
Description: as §1

[9] = target: T11, Peptidase, Endothelin Converting Enzyme-1 (ECE-1) (Homo sapiens, UniProt P42892); experiment: biochemical; set-up: Eurofins Alzheimer's MoA LeadHunter enzyme assays; percent inhibition of enzyme activity, mean of duplicates; details: Ligand or Substrate=Mca-[…]Dnp)
T11 construct: gene ECE1
Description: as §1

[10] = target: T12, Peptidase, Metalloproteinase, Neutral Endopeptidase (Homo sapiens, UniProt P08473); experiment: biochemical; set-up: Eurofins Alzheimer's MoA LeadHunter enzyme assays; percent inhibition of enzyme activity, mean of duplicates; details: Ligand or Substrate=Mca-R-P-P-G-F-S-A-F-K(Dnp)-OH
T12 construct: gene MME
Description: as §1

[11] = target: Protein Serine/Threonine Kinase, GSK3B (Homo sapiens, UniProt P49841); experiment: biochemical; set-up: Eurofins Alzheimer's MoA LeadHunter enzyme assays; percent inhibition of enzyme activity, mean of duplicates; details: Ligand or Substrate=Phospho-glycogen synthase peptide-2
Description: as §1

[12] = target: Protein Serine/Threonine Kinase, MAPK14 (p38alpha) (Homo sapiens, UniProt Q16539); experiment: biochemical; set-up: Eurofins Alzheimer's MoA LeadHunter enzyme assays; percent inhibition of enzyme activity, mean of duplicates; details: Ligand or Substrate=Myelin Basic Protein (MBP)
Description: as §1

[13] = target: Protein Tyrosine Kinase, Fyn (Homo sapiens, UniProt P06241); experiment: biochemical; set-up: Eurofins Alzheimer's MoA LeadHunter enzyme assays; percent inhibition of enzyme activity, mean of duplicates; details: Ligand or Substrate=Poly(Glu:Tyr)
Description: as §1

[14] = target: Protein Tyrosine Phosphatase, DUSP22 (Homo sapiens, UniProt Q9NRW4); experiment: biochemical; set-up: Eurofins Alzheimer's MoA LeadHunter enzyme assays; percent inhibition of enzyme activity, mean of duplicates; details: Ligand or Substrate=DiFMUP
Description: as §1

Adenosine A2A = target: T13, Adenosine A2A (Homo sapiens, UniProt P29274); experiment: biochemical; set-up: Eurofins Alzheimer's MoA LeadHunter radioligand binding assays; percent inhibition of specific binding, mean of duplicates; details: Ligand or Substrate=[3H]CGS-21680
T13 construct: gene ADORA2A
Description: as §1

Chemokine CX3CR1 = Chemokine CX3CR1 (Homo sapiens, UniProt P49238); experiment: biochemical; set-up: Eurofins Alzheimer's MoA LeadHunter radioligand binding assays; percent inhibition of specific binding, mean of duplicates; details: Ligand or Substrate=[125I]Fractalkine
Description: as §1

[15] = target: T14, Glutamate, Metabotropic, mGlu5 (Homo sapiens, UniProt P41594); experiment: biochemical; set-up: Eurofins Alzheimer's MoA LeadHunter radioligand binding assays; percent inhibition of specific binding, mean of duplicates; details: Ligand or Substrate=[3H]Quisqualic acid
T14 construct: gene GRM5
Description: as §1

Histamine H3 = target: T15, Histamine H3 (Homo sapiens, UniProt Q9Y5N1); experiment: biochemical; set-up: Eurofins Alzheimer's MoA LeadHunter radioligand binding assays; percent inhibition of specific binding, mean of duplicates; details: Ligand or Substrate=[3H]N-alpha-Methylhistamine (NAMH)
T15 construct: gene HRH3
Description: as §1

Muscarinic M1 = target: T16, Muscarinic M1 (Homo sapiens, UniProt P11229); experiment: biochemical; set-up: Eurofins Alzheimer's MoA LeadHunter radioligand binding assays; percent inhibition of specific binding, mean of duplicates; details: Ligand or Substrate=[3H]N-Methylscopolamine
T16 construct: gene CHRM1
Description: as §1

[16] = target: T17, Nicotinic Acetylcholine alpha7, Methyllycaconitine (Rattus norvegicus, UniProt Q05941); experiment: biochemical; set-up: Eurofins Alzheimer's MoA LeadHunter radioligand binding assays; percent inhibition of specific binding, mean of duplicates; details: Ligand or Substrate=[3H]Methyllycaconitine
T17 construct: gene Chrna7; methyllycaconitine site
Description: as §1

[17] = target: T18, Platelet Activating Factor (PAF) (Homo sapiens, UniProt P25105); experiment: biochemical; set-up: Eurofins Alzheimer's MoA LeadHunter radioligand binding assays; percent inhibition of specific binding, mean of duplicates; details: Ligand or Substrate=[3H]PAF
T18 construct: gene PTAFR
Description: as §1

[18] = target: T19, Serotonin (5-Hydroxytryptamine) 5-HT1A, WAY-100635 (Homo sapiens, UniProt P08908); experiment: biochemical; set-up: Eurofins Alzheimer's MoA LeadHunter radioligand binding assays; percent inhibition of specific binding, mean of duplicates; details: Ligand or Substrate=[3H]WAY100635
T19 construct: gene HTR1A; WAY-100635
Description: as §1

[19] = target: T20, Serotonin (5-Hydroxytryptamine) 5-HT4B (Homo sapiens, UniProt Q13639); experiment: biochemical; set-up: Eurofins Alzheimer's MoA LeadHunter radioligand binding assays; percent inhibition of specific binding, mean of duplicates; details: Ligand or Substrate=[3H]GR-113808
T20 construct: gene HTR4; isoform 5-HT4B
Description: as §1

[20] = target: T21, Serotonin (5-Hydroxytryptamine) 5-HT6 (Homo sapiens, UniProt P50406); experiment: biochemical; set-up: Eurofins Alzheimer's MoA LeadHunter radioligand binding assays; percent inhibition of specific binding, mean of duplicates; details: Ligand or Substrate=[3H]Lysergic acid diethylamide (LSD)
T21 construct: gene HTR6
Description: as §1

Sigma1 = target: T22, Sigma1 (Homo sapiens, UniProt Q99720); experiment: biochemical; set-up: Eurofins Alzheimer's MoA LeadHunter radioligand binding assays; percent inhibition of specific binding, mean of duplicates; details: Ligand or Substrate=[3H]Pentazocine
T22 construct: gene SIGMAR1
Description: as §1

Somatostatin sst4 = target: T23, Somatostatin sst4 (Homo sapiens, UniProt P31391); experiment: biochemical; set-up: Eurofins Alzheimer's MoA LeadHunter radioligand binding assays; percent inhibition of specific binding, mean of duplicates; details: Ligand or Substrate=[125I]Tyr11-Somatostatin 14
T23 construct: gene SSTR4
Description: as §1

T1 sequence (O00519 whole entry): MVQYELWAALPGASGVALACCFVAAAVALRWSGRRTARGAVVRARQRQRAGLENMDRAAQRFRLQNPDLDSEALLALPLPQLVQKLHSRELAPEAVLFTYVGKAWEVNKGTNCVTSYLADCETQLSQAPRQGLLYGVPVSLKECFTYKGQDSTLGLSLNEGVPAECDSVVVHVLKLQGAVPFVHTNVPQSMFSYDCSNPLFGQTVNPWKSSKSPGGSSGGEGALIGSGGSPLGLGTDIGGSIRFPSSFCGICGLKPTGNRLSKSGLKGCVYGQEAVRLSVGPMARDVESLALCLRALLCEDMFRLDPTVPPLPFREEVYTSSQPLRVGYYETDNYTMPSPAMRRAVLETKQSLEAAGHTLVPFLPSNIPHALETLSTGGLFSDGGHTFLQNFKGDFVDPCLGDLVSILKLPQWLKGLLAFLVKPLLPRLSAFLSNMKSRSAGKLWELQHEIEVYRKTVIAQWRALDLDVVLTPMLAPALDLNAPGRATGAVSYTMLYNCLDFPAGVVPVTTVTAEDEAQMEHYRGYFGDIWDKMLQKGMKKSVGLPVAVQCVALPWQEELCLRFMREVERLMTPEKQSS
T4 sequence (P06276 whole entry): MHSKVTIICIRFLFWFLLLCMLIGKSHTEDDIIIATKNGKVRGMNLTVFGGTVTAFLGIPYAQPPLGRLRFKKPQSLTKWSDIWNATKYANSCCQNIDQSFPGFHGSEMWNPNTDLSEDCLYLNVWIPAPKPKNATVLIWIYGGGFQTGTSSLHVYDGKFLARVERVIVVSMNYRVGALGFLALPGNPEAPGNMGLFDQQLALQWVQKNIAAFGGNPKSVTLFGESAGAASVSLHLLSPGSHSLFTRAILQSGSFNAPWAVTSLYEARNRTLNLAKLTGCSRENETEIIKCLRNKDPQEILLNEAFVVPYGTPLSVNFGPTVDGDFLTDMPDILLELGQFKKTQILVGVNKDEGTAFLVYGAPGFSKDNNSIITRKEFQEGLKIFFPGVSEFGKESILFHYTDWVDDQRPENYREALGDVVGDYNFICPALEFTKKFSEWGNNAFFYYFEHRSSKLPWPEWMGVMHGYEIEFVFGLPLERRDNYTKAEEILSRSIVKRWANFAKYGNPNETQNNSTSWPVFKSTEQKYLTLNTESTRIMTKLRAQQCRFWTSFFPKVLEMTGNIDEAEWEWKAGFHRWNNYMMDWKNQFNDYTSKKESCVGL
T19 sequence (P08908 whole entry): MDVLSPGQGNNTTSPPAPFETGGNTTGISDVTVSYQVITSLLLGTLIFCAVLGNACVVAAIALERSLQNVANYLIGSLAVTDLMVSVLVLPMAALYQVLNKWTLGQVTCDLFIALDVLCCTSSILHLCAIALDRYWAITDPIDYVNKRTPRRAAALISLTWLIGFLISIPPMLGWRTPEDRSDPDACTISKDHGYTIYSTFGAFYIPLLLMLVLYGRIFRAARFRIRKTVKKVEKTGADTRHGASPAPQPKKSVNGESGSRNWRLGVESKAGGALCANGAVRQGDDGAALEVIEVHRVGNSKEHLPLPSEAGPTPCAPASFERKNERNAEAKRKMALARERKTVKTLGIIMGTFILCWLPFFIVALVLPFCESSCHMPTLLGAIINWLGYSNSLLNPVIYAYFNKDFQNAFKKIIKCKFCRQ
Sequence of Protein Serine/Threonine Kinase, MAPK14 (p38alpha) (Q16539 whole entry): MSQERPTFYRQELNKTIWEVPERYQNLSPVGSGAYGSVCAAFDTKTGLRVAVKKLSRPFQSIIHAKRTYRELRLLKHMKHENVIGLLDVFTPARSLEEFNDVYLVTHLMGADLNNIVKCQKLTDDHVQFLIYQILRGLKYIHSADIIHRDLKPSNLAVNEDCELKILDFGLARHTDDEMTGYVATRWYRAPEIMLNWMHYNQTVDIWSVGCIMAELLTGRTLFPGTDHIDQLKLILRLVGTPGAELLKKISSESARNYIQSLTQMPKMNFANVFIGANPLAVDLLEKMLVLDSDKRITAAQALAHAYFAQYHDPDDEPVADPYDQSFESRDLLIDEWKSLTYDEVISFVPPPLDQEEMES
T20 sequence (Q13639 whole entry, canonical isoform): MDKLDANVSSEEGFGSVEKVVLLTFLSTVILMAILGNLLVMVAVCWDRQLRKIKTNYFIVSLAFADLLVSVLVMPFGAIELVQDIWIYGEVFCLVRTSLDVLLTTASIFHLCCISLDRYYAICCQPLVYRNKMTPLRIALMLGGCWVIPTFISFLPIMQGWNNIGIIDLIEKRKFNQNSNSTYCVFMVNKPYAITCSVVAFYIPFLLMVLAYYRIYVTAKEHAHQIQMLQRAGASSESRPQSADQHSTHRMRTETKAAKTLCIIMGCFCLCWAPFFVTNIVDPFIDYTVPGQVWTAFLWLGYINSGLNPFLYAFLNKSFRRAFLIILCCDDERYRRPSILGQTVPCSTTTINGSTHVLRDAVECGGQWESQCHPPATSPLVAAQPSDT
T8 sequence (P21397 whole entry): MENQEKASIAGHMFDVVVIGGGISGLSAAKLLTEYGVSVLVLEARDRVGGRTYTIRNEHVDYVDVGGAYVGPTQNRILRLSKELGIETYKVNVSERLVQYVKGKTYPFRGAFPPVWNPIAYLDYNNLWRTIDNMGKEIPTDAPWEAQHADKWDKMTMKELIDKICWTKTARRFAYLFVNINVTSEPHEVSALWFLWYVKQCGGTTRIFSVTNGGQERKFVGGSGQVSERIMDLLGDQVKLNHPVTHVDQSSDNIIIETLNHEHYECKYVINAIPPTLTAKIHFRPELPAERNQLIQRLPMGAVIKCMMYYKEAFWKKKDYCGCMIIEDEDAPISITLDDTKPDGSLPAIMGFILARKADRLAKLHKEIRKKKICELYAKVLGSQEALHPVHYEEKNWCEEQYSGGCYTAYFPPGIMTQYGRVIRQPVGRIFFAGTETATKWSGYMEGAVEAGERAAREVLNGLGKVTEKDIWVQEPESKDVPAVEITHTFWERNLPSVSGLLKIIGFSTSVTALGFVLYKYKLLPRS
T11 sequence (P42892 whole entry): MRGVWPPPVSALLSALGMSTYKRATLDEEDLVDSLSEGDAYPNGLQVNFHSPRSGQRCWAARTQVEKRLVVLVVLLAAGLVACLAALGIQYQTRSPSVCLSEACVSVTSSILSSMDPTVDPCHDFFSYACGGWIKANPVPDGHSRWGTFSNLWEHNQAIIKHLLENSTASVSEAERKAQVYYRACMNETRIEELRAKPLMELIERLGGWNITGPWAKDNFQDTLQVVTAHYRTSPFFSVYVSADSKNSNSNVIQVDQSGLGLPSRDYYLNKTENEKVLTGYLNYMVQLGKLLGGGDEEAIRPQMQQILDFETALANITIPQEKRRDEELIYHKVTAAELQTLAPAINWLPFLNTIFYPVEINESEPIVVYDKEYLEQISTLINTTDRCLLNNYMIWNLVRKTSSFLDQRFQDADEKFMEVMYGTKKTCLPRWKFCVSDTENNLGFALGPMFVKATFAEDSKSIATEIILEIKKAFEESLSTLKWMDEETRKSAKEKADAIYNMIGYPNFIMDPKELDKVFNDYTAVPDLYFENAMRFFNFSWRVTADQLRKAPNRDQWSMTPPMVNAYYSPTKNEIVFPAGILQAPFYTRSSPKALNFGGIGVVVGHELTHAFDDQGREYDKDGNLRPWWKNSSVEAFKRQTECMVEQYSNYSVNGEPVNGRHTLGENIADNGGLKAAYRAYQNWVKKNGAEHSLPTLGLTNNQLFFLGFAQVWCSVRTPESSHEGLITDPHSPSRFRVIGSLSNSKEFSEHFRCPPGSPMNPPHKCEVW
T13 sequence (P29274 whole entry): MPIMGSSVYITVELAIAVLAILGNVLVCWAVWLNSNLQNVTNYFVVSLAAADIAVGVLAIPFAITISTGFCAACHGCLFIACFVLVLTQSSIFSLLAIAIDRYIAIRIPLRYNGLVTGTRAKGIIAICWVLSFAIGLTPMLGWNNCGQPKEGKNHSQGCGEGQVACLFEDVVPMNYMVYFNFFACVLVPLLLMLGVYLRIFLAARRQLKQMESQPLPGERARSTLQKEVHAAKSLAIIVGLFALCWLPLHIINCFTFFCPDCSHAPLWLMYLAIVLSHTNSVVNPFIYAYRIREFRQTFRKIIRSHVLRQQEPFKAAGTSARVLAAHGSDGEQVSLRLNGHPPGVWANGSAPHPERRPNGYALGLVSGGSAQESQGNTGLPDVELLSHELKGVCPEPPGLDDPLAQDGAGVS
T17 sequence (Q05941 whole entry): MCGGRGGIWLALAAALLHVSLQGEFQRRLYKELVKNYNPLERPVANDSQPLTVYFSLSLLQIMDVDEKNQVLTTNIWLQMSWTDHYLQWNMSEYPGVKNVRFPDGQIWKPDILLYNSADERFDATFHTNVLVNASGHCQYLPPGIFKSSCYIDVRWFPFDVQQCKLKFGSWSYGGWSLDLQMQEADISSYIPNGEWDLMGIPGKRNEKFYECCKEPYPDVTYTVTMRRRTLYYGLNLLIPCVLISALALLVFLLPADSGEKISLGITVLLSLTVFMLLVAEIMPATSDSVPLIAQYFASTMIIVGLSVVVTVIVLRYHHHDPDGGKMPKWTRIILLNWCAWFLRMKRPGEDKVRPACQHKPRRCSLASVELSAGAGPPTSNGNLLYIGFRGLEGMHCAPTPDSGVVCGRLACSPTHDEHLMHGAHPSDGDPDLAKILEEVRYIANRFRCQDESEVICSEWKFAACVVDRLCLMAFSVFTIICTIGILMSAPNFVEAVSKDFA
Sequence of Protein Tyrosine Phosphatase, DUSP22 (Q9NRW4 whole entry): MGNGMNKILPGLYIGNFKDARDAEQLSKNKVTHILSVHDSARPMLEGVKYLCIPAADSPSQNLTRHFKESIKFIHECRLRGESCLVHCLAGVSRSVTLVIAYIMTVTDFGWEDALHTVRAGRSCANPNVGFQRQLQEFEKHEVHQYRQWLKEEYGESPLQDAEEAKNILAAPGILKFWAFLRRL
T22 sequence (Q99720 whole entry): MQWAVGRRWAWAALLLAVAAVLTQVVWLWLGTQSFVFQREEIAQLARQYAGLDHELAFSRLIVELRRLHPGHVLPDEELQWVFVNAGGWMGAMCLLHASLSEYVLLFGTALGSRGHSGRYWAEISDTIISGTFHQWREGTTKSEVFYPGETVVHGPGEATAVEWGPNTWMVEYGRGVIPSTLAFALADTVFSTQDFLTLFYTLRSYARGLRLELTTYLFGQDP

Work on `CCCCCCCCCCCCCCC(=O)O` [C15:0, Pentadecanoic acid] yielded an IC50 [1] of 2.51 µM, an IC50 [2] of 19.4 µM and an inhibition at 20 µM [3] of 1.5%. For the same compound, the inhibition at 20 µM [4] was 44.7%, the inhibition at 20 µM [5] was 2.5% and the inhibition at 20 µM (Cyclooxygenase COX-1) was -17%. For the same compound, the inhibition at 20 µM (Cyclooxygenase COX-2) was 5.3%, the inhibition at 20 µM [6] was 70.3% and the inhibition at 20 µM (IDO1) was 39.4%. The inhibition at 20 µM (Lipoxygenase 15-LOX-2) was 8%, the inhibition at 20 µM (Monoamine Oxidase MAO-A) was 11.4% and the inhibition at 20 µM (Monoamine Oxidase MAO-B) was 64.7%. The inhibition at 20 µM (Myeloperoxidase) was 44.8%, the inhibition at 20 µM [7] was 2.4% and the inhibition at 20 µM [8] was -35.2%. For the same compound, the inhibition at 20 µM [9] was 7.1%, the inhibition at 20 µM [10] was 2.1% and the inhibition at 20 µM [11] was 15%. The inhibition at 20 µM [12] was -14.8%, the inhibition at 20 µM [13] was -16.2% and the inhibition at 20 µM [14] was -28.1%. It also gave an inhibition at 20 µM (Adenosine A2A) of 10.7%, an inhibition at 20 µM (Chemokine CX3CR1) of 5.3% and an inhibition at 20 µM [15] of 0%. The inhibition at 20 µM (Histamine H3) was 1.7%, the inhibition at 20 µM (Muscarinic M1) was 9% and the inhibition at 20 µM [16] was -9.1%. For the same compound, the inhibition at 20 µM [17] was -6.6%, the inhibition at 20 µM [18] was 3.9% and the inhibition at 20 µM [19] was -1.7%. For the same compound, the inhibition at 20 µM [20] was -16.1%, the inhibition at 20 µM (Sigma1) was -18.6% and the inhibition at 20 µM (Somatostatin sst4) was -4.4%.
